The values that follow are results of earlier work, collected in US6565840B1, “Monomeric compositions effective as wound closure devices” (Closure Medical Corporation, priority 1996, dated 2003).

The pKa is the negative logarithm of the acid dissociation constant. As to `CC(=O)C(C(C)=O)C(C)=O` [triacetylmethane], the pKa was 5.9.
